Where a name gives a salt, the structure may show the parent alone. Read-outs that look alike come from different tables or passages of the source.
Assays:
[1] = tested on: trembling and peripherical cholinergic manifestations provoked by tremorine; test: Antitremorine activity (ED50); type: in vivo; conditions: mice; for ED50: Mus musculus, ip, i.p. aqueous solution, tremorine 20 mg/kg i.p. half an hour after
Experimental: The antagonism of the test compounds to the trembling and peripherical cholinergic manifestations provoked by tremorine [Everett et al, Science, Vol. 124 (1956), p. 79] was studied on mice.
The product of Example 1 in aqueous solution was intraperitoneally administered at doses of 0.5, 1,2 and 5 mg/kg to groups of 10 mice and the mice received an intraperitoneal injection of 20 mg/kg of tremorine half an hour after the test product. The reactions (trembling, salivation, lacrymation) of the animals were observed 10, 20, 30 and 60 minutes after the tremorine injection. At the height of the activity, the 50% efficacy dose (ED50) in which 50% of the animals were protected from the trembling and peripheral parasympathomimetic reactions of salivation and lacrymation normally provoked by tremorine injection were determined.

[2] = tested on: trembling and peripherial cholinergic manifestations provoked by oxotremorine; test: Antioxotremorine activity: antagonism to the trembling and peripherial cholinergic manifestations (Table II); type: in vivo, mice
Experimental: The antagonism of the test products to the trembling and peripherial cholinergic manifestations provoked by oxotremorine [Cho et al, J. Biochem. Biophys. Res. Commun., Vol. 5, (196l) p. 276] was studied on mice. The product of Example 1 was administered subcutaneously in aqueous solution at doses of 50 and 100 mg/kg to groups of 10 mice and the products of Example 2 were subcutaneously administered in sesame oil solution at doses of 200 and 400 mg/kg to groups of 10 mice. Control animals received no vehicle. The mice then received a single intraperitoneal dose of 0.5 mg/kg of oxotremorine either 4 hours, 1 day, 2, 3, 4 or 7 days after the injection of the test product. The reaction of the animals as in Table I were recorded 5,10 and 15 minutes after the injection of oxotremorine and the percent of inhibition of the different reactions, at the height of the effect, after the oxotremorine injection was determined as a function of time.

[3] = tested on: antinociceptive activity of oxotremorine; test: Antagonism of antinociceptive activity of oxotremorine, hot plate (Table III); type: in vivo, mice
Experimental: The antinociceptive activity of oxotremorine [Leslie, J. Pharm. Pharmae., Vol. 2 (1969), p. 248-50] was determined on mice using the hot plate method of Eddy et al [J. Pharmacol. Vol. 107 (1953), p. 385] in the presence and absence of the test product presumed to be antagonistic. The product of Example 1 was administered subcutaneously in aqueous solution at doses of 50 and 100 mg/kg to groups of 10 mice and the products of Examples 2 to 5 were subcutaneously administered in sesame oil solution at doses of 200 and 400 mg/kg to groups of 10 mice. The mice then received a single intraperitoneal injection of 0.5 mg/kg of oxotremorine either 4 hours, 1 day, 2, 3, 4 or 7 days after the test product administration. For each time considerated, the mice were placed on the hot plate one half hour after the oxotremorine administration and the time for the appearance of nociceptive refluxes consistituted by simultaneous licking of the front paws was noted. The maximum time of staying on the hot plate was fixed at 45 seconds and the percentage of animals with a reaction time (RT) less than 40 seconds in spite of oxotremorine administration was determined.

[4] = Acute toxicity study (LD50); set-up: species or system mice; conditions: mouse, in vivo, aqueous solution
Experimental: The acute toxicity of the products was determined intraperitoneally or subcutaneously on mice weighing about 20 g with the LD50 dose being calculated by the method of Litchfield et al [J. Pharmacol. exp. Therap., Vol. 96 (1949), p. 99-133]. The LD50 for the product of Example 1 in aqueous solution was about 100 mg/kg intraperitoneally after 2 days of observation and about 500 mg/kg subcutaneously after 5 days of observation.

[5] = 50 mg/kg s.c. aqueous solution, after 4 h
[6] = 50 mg/kg s.c. aqueous solution, after 1 d
[7] = 100 mg/kg s.c. aqueous solution, after 4 h
[8] = 100 mg/kg s.c. aqueous solution, after 1 d

Compound: OCCN1C2CCC1CC(=C1c3ccccc3CSc3ccccc31)C2 (racemic) [Example 1, dl N-(β-hydroxyethyl)-11-(3'-nortropylidene)-6,11-dihydrodibenzo(b,e)thiepine hydrochloride]
- ED50 ([1]; read-out: ED50 for parasympathomimetic reactions (salivation and lacrymation)): 1 to 2 mg/kg
- ED50 ([1]; read-out: ED50 for trembling): 1 mg/kg
- anticholinergic activity (in words) ([1]; antitremorine test, i.p.): important anticholinergic activity
- % inhibition of reactions: L (lacrymation) [2, 5]: 100%
- % inhibition of reactions: S (salivation) [2, 5]: 100%
- % inhibition of reactions: T (trembling) [2, 5]: 100%
- % inhibition of reactions: L (lacrymation) [2, 6]: 0%
- % inhibition of reactions: S (salivation) [2, 6]: 0%
- % inhibition of reactions: T (trembling) [2, 6]: 0%
- % inhibition of reactions: L (lacrymation) [2, 7]: 100%
- % inhibition of reactions: S (salivation) [2, 7]: 100%
- % inhibition of reactions: T (trembling) [2, 7]: 100%
- % inhibition of reactions: L (lacrymation) [2, 8]: 0%
- % inhibition of reactions: S (salivation) [2, 8]: 0%
- % inhibition of reactions: T (trembling) [2, 8]: 0%
- % of animals with a RT less than 40 seconds [3, 5]: 100%
- % of animals with a RT less than 40 seconds [3, 6]: 10%
- % of animals with a RT less than 40 seconds [3, 7]: 100%
- % of animals with a RT less than 40 seconds [3, 8]: 20%
- antagonistic activity against antinociceptive activity of oxotremorine (in words) ([3]; s.c., mice, Table III): important antagonistic activity against antinociceptive activity of oxotremorine which is manifested for several hours
- LD50 at 48 h ([4]; ip, after 2 days of observation): ~100 mg/kg
- LD50 at 120 h ([4]; sc, after 5 days of observation): ~500 mg/kg

Source: US3975529A, “Diebenzo(B,E)thiepines” (Roussel-UCLAF, priority 1974, dated 1976)
